Consider three molecules from patent publication US5516790A, “Synthesis and application of alkyl-substituted dibenzofurans as antitumorigenic agents” (Texas A&M University System Technology Licensing Office, priority 1994, dated 1996).

In one data set the test system is 160-kDa protein. It counts as cell-based, human. Here is the method:
(§1) On day 0, the media was removed and the cells were rinsed two times with PBS. […] The cells were allowed to incubate for 48 h. […] After 6 h, the media was removed, 10 μl was counted and the remaining media was used for analysis of secreted proteins.
(§2) The secreted proteins were analyzed by sodium dodecyl sulfate (SDS) polyacrylamide gel electrophoresis; 30 μl of the media was mixed with an equal volume of buffer containing SDS, β-mercaptoethanol, glycerol, Tris and bromophenol blue. The samples were heated for 2 minutes in a boiling water bath and 50 μl of each sample was loaded onto a 1.5 mm thick 12% acrylamide slab gel (containing 0.075% bisacrylamide) with a 3% stacking gel (containing 0.15% bisacrylamide). The gels were run at […] overnight and processed for fluorography (using Enhance: Dupont) and exposed to Kodak X-OMAT film for 10 days at -80° C. The molecular weights of the proteins were estimated by their mobility relative to a set of standard proteins with known molecular weights.
(§3) The incorporation of ^35 S-methionine into the 34-kDa, 52-kDa and 160-kDa proteins was estimated by scanning the films using a Zeineh Soft Laser Scanning Densitometer (model SLR-20/10) from Biomedical Instruments,Inc. The percentage of the area of the scans due to the particular protein was then compared between the experimental and control samples and the results are presented as means ± SD for at least three samples per treatment group.

A further data set deals with 34-kDa protein. It counts as cell-based, human. On the procedure: as §1, §2, §3
The next data set concerns 52-kDa protein. Format: cell-based, human. As to conditions: mcf-7 cells, 48 h, 0.001 µM. On the procedure: as §1, §2, §3
The test system of another data set is female rat uterus. As to the kind of experiment: Antiestrogenic effect on uterine wet weight, immature female Sprague-Dawley rats (Example 8). It counts as in vivo.
Another data set relates to estrogen receptor (ER). As to the kind of experiment: Uterine estrogen receptor levels, hydroxyapatite assay (Example 8). Format: in vivo, female Sprague-Dawley rats. On the procedure:
A second group of animals was similarly treated with corn oil, TCDD, MCDF, or TCDD plus MCDF, all administered in corn oil at 10 ml/kg and terminated 72 hours later.
(§4) The animals were terminated by cervical dislocation. Livers were perfused with ice-cold TEDG buffer (10 mM Tris-HCl, 1.5 mM EDTA-4Na, 1 mM dithiothreitol, 10% glycerol (v/v), pH 7.4). Following perfusion in situ, livers were removed, weighed, and homogenized in ice-cold TEDG buffer. Uteri were also removed, weighed, and homogenized in ice-cold buffer. The homogenates were then centrifuged at 800×g ([…]) for 15 minutes and the nuclear pellets were stored at -80° C. The supernatants were further centrifuged at 180,000× g for 1.5 hours. The cytosolic supernatant was also stored at -80° C. Estrogen and progesterone receptor levels were determined within 7 days.
(§5) Estrogen (ER) and progesterone (PR) receptor levels were determined by the hydroxyapatite assay as described by Clark et al. (J. Steroid Biochem. 16:323-328, 1982) and incorporated herein by reference. […] Following the incubations, samples were counted and specific binding was calculated by subtraction of nonspecific from total binding. Assuming one steroid molecule binds to one estrogen/progesterone receptor, the number of moles of receptor can be calculated given the specific activity of the radioligand. The data presented in Tables 1 through 6 are means ± SD using at least four animals per treatment group. Significant differences were determined by analysis of variance.

Data set [1] relates to progesterone receptor (PR). As to the kind of experiment: Uterine progesterone receptor levels, hydroxyapatite assay (Example 8). Format: in vivo, female Sprague-Dawley rats. Here is the method: as §4, §5
Setting [2] is: 17β-estradiol alone, 1 nM, 2880 min.
Where [3] appears, read: Table 9, 17β-estradiol alone (1 nM), 2880 min.
[4] abbreviates: Table 2: 50 μmol/kg + E-2 (2 × 10 μg/rat).
Where [5] appears, read: Table 2: compound alone, 50 μmol/kg (17β-estradiol: 2 × 10 μg/rat).
The mark [6] stands for this setting: Table 3: 50 μmol/kg + E-2 (2 × 10 μg/rat).
Setting [7] is: Table 3: compound alone, 50 μmol/kg (17β-estradiol: 2 × 10 μg/rat).
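Throughout, for Secreted 160-kDa protein: MCF-7 human breast cancer cells.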
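Throughout, for Secreted 34-kDa protein: MCF-7 human breast cancer cells.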

As for `C[C@]12CC[C@@H]3c4ccc(O)cc4CC[C@H]3[C@@H]1CC[C@@H]2O` [17β-Estradiol], the “Secreted 160-kDa protein” value in the data set with 160-kDa protein (setting [2]) was 371 ± 27.1% of the values for control. In addition, the “Protein Secretion, 160-kDa” value with 160-kDa protein (setting [3]) is given as 228 % of Control. Also, the “increase in secretion of the 160-kDa protein” value in the data set on 160-kDa protein (mcf-7 cells, 48 h, 0.001 µM) came to 3.81 fold. In addition, the “Secreted 34-kDa protein” value in the data set with 34-kDa protein (setting [2]) is listed as 282 ± 17.6% of the values for control. In addition, the “Protein Secretion, 34-kDa” value in the data set on 34-kDa protein (setting [3]) is given as 201 % of Control. The “increase in secretion of the 34-kDa protein” value in the data set with 34-kDa protein (mcf-7 cells, 48 h, 0.001 µM) was 3.72 fold. For the same molecule, in the data set with 52-kDa protein, the “increase in secretion of the 52-kDa protein” value is listed as 4.97 fold.
Turning to `Cc1cc2c(cc1Cl)oc1c(Cl)cc(Cl)c(Cl)c12` [8-Methyl-1,2,4,7-tetraCDF, 8-methyl-1,2,4,7-tetrachlorodibenzofuran], the figures for the “Uterine Wet Weight” value in the data set with female rat uterus (setting [4]) and with female rat uterus (setting [5]) were 0.213 ± 0.017 % body wt and 0.175 ± 0.007 % body wt, respectively. Further, the “Estrogen Receptor Levels, Cytosolic” value is reported as 118.4 ± 14.6 fmol/mg protein in the data set on estrogen receptor (ER) (setting [4]) and 97.1 ± 10.1 fmol/mg protein in the data set on estrogen receptor (ER) (setting [5]). Moreover, the “Estrogen Receptor Levels, Nuclear” value with estrogen receptor (ER) (setting [4]) is recorded as 66.5 ± 8.9 fmol/mg protein; in the data set on estrogen receptor (ER) (setting [5]), 40.6 ± 5.3 fmol/mg protein. For the same molecule, the “Progesterone Receptor Levels, Cytosolic” value in data set [1] (setting [4]) is listed as 841 ± 73 fmol/mg protein; in data set [1] (setting [5]), 685 ± 59 fmol/mg protein. Further, the results for the “Progesterone Receptor Levels, Nuclear” value in data set [1] (setting [4]) and in data set [1] (setting [5]) were 399 ± 75 fmol/mg protein and 303 ± 46 fmol/mg protein, respectively.
With `Cc1cc2oc3cc(Cl)c(Cl)cc3c2cc1Cl` [7-Methyl-2,3,-triCDF, 7-methyl-2,3,8-trichlorodibenzofuran], the “Uterine Wet Weight” value in the data set on female rat uterus (setting [6]) was found to be 0.255 ± 0.017 % body wt; in the data set on female rat uterus (setting [7]), 0.102 ± 0.011 % body wt. Further, the “Estrogen Receptor Levels, Cytosolic” value in the data set on estrogen receptor (ER) (setting [6]) is reported as 94.2 ± 4.71 fmol/mg protein; with estrogen receptor (ER) (setting [7]), 72.9 ± 3.7 fmol/mg protein. The “Estrogen Receptor Levels, Nuclear” value was 48.1 ± 2.4 fmol/mg protein with estrogen receptor (ER) (setting [6]) and 35.2 ± 1.8 fmol/mg protein with estrogen receptor (ER) (setting [7]). Moreover, the “Progesterone Receptor Levels, Cytosolic” value in data set [1] (setting [6]) stood at 924 ± 74 fmol/mg protein; in data set [1] (setting [7]) it was 501 ± 35 fmol/mg protein. For the same molecule, the entries for the “Progesterone Receptor Levels, Nuclear” value in data set [1] (setting [6]) and in data set [1] (setting [7]) were 554 ± 39 fmol/mg protein and 364 ± 26 fmol/mg protein, respectively.
